Test results taken from US12479843B2, “Spiro ring-containing quinazoline compounds” (WIGEN BIOMEDICINE TECHNOLOGY (SHANGHAI) CO., LTD., priority 2019, dated 2025).

The compounds below were run on H358 cells (assay: Antiproliferative activity against H358 cells (Cell Titer Glow, ultra-low attachment plate)). Details: Homo sapiens, NCI-H358, 72 h, 96-well ultra-low attachment plate, three days after addition of compound, Cell Titer Glow.
Type: cell-based
Description: 2500 H358 cells were seeded in a 96-well ultra-low attachment plate (corning, 7007). After one day of growth, a serially diluted compound (a maximum concentration of 5 μM, 5-fold dilution, a total of five doses) was added. Three days after the addition of the compound, Cell Titer Glow (Promega, G9681) was added to evaluate pellet growth, and the IC50 value was calculated.

IC50 [µM]	Compound
< 0.3	C=CC(=O)N1CC2(CCN(c3nc(N4CC5(CC(N6CCCC6)C5)C4)nc4c(OCC(F)(F)F)c(-c5c(C)ccc6[nH]ncc56)c(C5CC5)cc34)CC2)C1 [Compound 289]
< 0.3	C=CC(=O)N1CC2(CCN(c3nc(N4CC(N5CCC[C@@H]5C)C4)nc4c(OCC(F)(F)F)c(-c5c(C)ccc6[nH]ncc56)c(C5CC5)cc34)CC2)C1 [Compound 246]
< 0.3	C=CC(=O)N1CC2(CCN(c3nc(N4CC(N5CC[C@@H](OC)C5)C4)nc4c(OCC(F)(F)F)c(-c5c(C)ccc6[nH]ncc56)c(C5CC5)cc34)CC2)C1 [Compound 175]
< 0.3	C=CC(=O)N1CC2(CCN(c3nc(N4CC5(C4)[C@H](OC)CCN5C)nc4c(OCC(F)(F)F)c(-c5c(C)ccc6[nH]ncc56)c(C5CC5)cc34)CC2)C1 [Compound 276]
< 0.3	C=CC(=O)N1CC2(CCN(c3nc(OC4CCN(CCOC)CC4)nc4c(OCC(F)(F)F)c(-c5cc(O)cc6ccccc56)c(C5CC5)cc34)CC2)C1 [Compound 60]
0.3 to 1	C=CC(=O)N1CC2(CCN(c3nc(N4CC(N5CC(F)(F)C5)C4)nc4c(OCC(F)(F)F)c(-c5c(C)ccc6[nH]ncc56)c(C5CC5)cc34)CC2)C1 [Compound 169]
< 0.3	C=CC(=O)N1CC2(CCN(c3nc(OC4CCN(CCOC)CC4)nc4c(OCC(F)(F)F)c(-c5ccccc5C(F)(F)F)c(C5CC5)cc34)CC2)C1 [Compound 55]
< 0.3	C=CC(=O)N1CC2(CCN(c3nc(OC4CN(CCOC)C4)nc4c(OCC(F)(F)F)c(-c5c(C)ccc6[nH]ncc56)c(C5CC5)cc34)CC2)C1 [Compound 113]
0.3 to 1	C=C(F)C(=O)N1CC2(CCN(c3nc(OC4CC5CC4CN5CCOC)nc4c(OCC(F)(F)F)c(-c5c(C)ccc6[nH]ncc56)c(C5CC5)cc34)CC2)C1 (centres unmarked) [Compound 122]
< 0.3	C=CC(=O)N1CC2(CCN(c3nc(N4CC[C@H](N5CC[C@@H](OC)C5)C4)nc4c(OCC(F)(F)F)c(-c5c(C)ccc6[nH]ncc56)c(C5CC5)cc34)CC2)C1 [Compound 197]
< 0.3	C=CC(=O)N1CC2(CCN(c3nc(N4CC(N5CC[C@H](N(C)C)C5)C4)nc4c(OCC(F)(F)F)c(-c5c(C)ccc6[nH]ncc56)c(C5CC5)cc34)CC2)C1 [Compound 255]
0.3 to 1	C=CC(=O)N1CC2(CCN(c3nc(N4CC5(CCN(CC(F)(F)F)CC5)C4)nc4c(OCC(F)(F)F)c(-c5c(C)ccc6[nH]ncc56)c(C5CC5)cc34)CC2)C1 [Compound 85]
< 0.3	C=CC(=O)N1CC2(CCN(c3nc(N4CC[C@H](N5CC[C@H](OC)C5)C4)nc4c(OCC(F)(F)F)c(-c5c(C)ccc6[nH]ncc56)c(C5CC5)cc34)CC2)C1 [Compound 195]
< 0.3	C=C(F)C(=O)N1CC2(CCN(c3nc(OC[C@@H]4COCCN4CCOC)nc4c(OCC(F)(F)F)c(-c5c(C)ccc6[nH]ncc56)c(C5CC5)cc34)CC2)C1 [Compound 118]
< 0.3	C=CC(=O)N1CC2(CCN(c3nc(N4CC(N5C[C@@H](C)[C@@H](OC)C5)C4)nc4c(OCC(F)(F)F)c(-c5c(C)ccc6[nH]ncc56)c(C5CC5)cc34)CC2)C1 [Compound 266]
< 0.3	C=CC(=O)N1CC2(CCN(c3nc(N4CC5(C4)[C@H](N(C)C)CCN5C)nc4c(OCC(F)(F)F)c(-c5c(C)ccc6[nH]ncc56)c(C5CC5)cc34)CC2)C1 [Compound 278]

Each compound was assayed on pERK level in H358 cells (assay: pERK and ERK protein content assay in H358 cells (ELISA)). Details: Homo sapiens, NCI-H358, compound 1 μM, 24 h, pERK/ERK ratio compared with DMSO group, read-out: Inhibition rate (%) of pERK level.
Type: cell-based
Description: H358 cells were seeded in a 24-well plate. After one day of growth, a test compound (at a concentration of 1 μM) was added. After 24 h of action of the compound, the cells were lysed, and the cell lysate was transferred to a 96-well ELISA plate. The levels of pERK and ERK in the lysate were measured using an ELISA kit (abcam 176660). The ratio of pERK to ERK was calculated and compared with that of the DMSO group, and the percentage of inhibition of pERK activity by the compound was calculated.

Compound	inhibition at 1 µM [%]
C=CC(=O)N1CC2(CCN(c3nc(N4CC5(CC(N6CCCC6)C5)C4)nc4c(OCC(F)(F)F)c(-c5c(C)ccc6[nH]ncc56)c(C5CC5)cc34)CC2)C1 [Compound 289]	> 90
C=CC(=O)N1CC2(CCN(c3nc(N4CC(N5CCC[C@@H]5C)C4)nc4c(OCC(F)(F)F)c(-c5c(C)ccc6[nH]ncc56)c(C5CC5)cc34)CC2)C1 [Compound 246]	> 90
C=CC(=O)N1CC2(CCN(c3nc(N4CC(N5CC[C@@H](OC)C5)C4)nc4c(OCC(F)(F)F)c(-c5c(C)ccc6[nH]ncc56)c(C5CC5)cc34)CC2)C1 [Compound 175]	> 90
C=CC(=O)N1CC2(CCN(c3nc(N4CC5(C4)[C@H](OC)CCN5C)nc4c(OCC(F)(F)F)c(-c5c(C)ccc6[nH]ncc56)c(C5CC5)cc34)CC2)C1 [Compound 276]	> 90
C=CC(=O)N1CC2(CCN(c3nc(OC4CCN(CCOC)CC4)nc4c(OCC(F)(F)F)c(-c5cc(O)cc6ccccc56)c(C5CC5)cc34)CC2)C1 [Compound 60]	> 90
C=CC(=O)N1CC2(CCN(c3nc(N4CC(N5CC(F)(F)C5)C4)nc4c(OCC(F)(F)F)c(-c5c(C)ccc6[nH]ncc56)c(C5CC5)cc34)CC2)C1 [Compound 169]	50 to 90
C=CC(=O)N1CC2(CCN(c3nc(OC4CCN(CCOC)CC4)nc4c(OCC(F)(F)F)c(-c5ccccc5C(F)(F)F)c(C5CC5)cc34)CC2)C1 [Compound 55]	> 90
C=CC(=O)N1CC2(CCN(c3nc(OC4CN(CCOC)C4)nc4c(OCC(F)(F)F)c(-c5c(C)ccc6[nH]ncc56)c(C5CC5)cc34)CC2)C1 [Compound 113]	> 90
C=C(F)C(=O)N1CC2(CCN(c3nc(OC4CC5CC4CN5CCOC)nc4c(OCC(F)(F)F)c(-c5c(C)ccc6[nH]ncc56)c(C5CC5)cc34)CC2)C1 (centres unmarked) [Compound 122]	50 to 90
C=CC(=O)N1CC2(CCN(c3nc(N4CC[C@H](N5CC[C@@H](OC)C5)C4)nc4c(OCC(F)(F)F)c(-c5c(C)ccc6[nH]ncc56)c(C5CC5)cc34)CC2)C1 [Compound 197]	> 90
C=CC(=O)N1CC2(CCN(c3nc(N4CC(N5CC[C@H](N(C)C)C5)C4)nc4c(OCC(F)(F)F)c(-c5c(C)ccc6[nH]ncc56)c(C5CC5)cc34)CC2)C1 [Compound 255]	> 90
C=CC(=O)N1CC2(CCN(c3nc(N4CC5(CCN(CC(F)(F)F)CC5)C4)nc4c(OCC(F)(F)F)c(-c5c(C)ccc6[nH]ncc56)c(C5CC5)cc34)CC2)C1 [Compound 85]	> 90
C=CC(=O)N1CC2(CCN(c3nc(N4CC[C@H](N5CC[C@H](OC)C5)C4)nc4c(OCC(F)(F)F)c(-c5c(C)ccc6[nH]ncc56)c(C5CC5)cc34)CC2)C1 [Compound 195]	> 90
C=C(F)C(=O)N1CC2(CCN(c3nc(OC[C@@H]4COCCN4CCOC)nc4c(OCC(F)(F)F)c(-c5c(C)ccc6[nH]ncc56)c(C5CC5)cc34)CC2)C1 [Compound 118]	> 90
C=CC(=O)N1CC2(CCN(c3nc(N4CC(N5C[C@@H](C)[C@@H](OC)C5)C4)nc4c(OCC(F)(F)F)c(-c5c(C)ccc6[nH]ncc56)c(C5CC5)cc34)CC2)C1 [Compound 266]	> 90
C=CC(=O)N1CC2(CCN(c3nc(N4CC5(C4)[C@H](N(C)C)CCN5C)nc4c(OCC(F)(F)F)c(-c5c(C)ccc6[nH]ncc56)c(C5CC5)cc34)CC2)C1 [Compound 278]	> 90
